According to patent US6486196B2, “Anticancer compounds: process for their preparation and pharmaceutical compositions containing them” (Dr. Reddy's Research Foundation, priority 2000, dated 2002):

Assays:
UACC62 = assay: Sulforhodamine B growth inhibition, melanoma UACC62; format: cell-based, human; settings: 48 h, SRB, read-out: GROWTH INHIBITION (GI 50)
Description: (§1) Each test compound was screened against a battery of cell lines representing eight different types of cancers. In a typical procedure, 1×10^4 cells were seeded into each well of 96 well plate in 100 μL volume of RPMI 1640 medium containing antibiotics and 10% FCS.
(§2) The plates were incubated at 37° C. in presence of CO2. After 24 h, test compounds were evaluated at five 10 fold dilutions ranging from 100 to 0.01 μM. To each test well 100 μL of test compound solution was added and medium with vehicle was added to control wells and the plates were further incubated. After 48 h of incubation, plates were terminated by Sulforhodamine B method.
(§3) The optical density which is proportional to protein mass, is then read by automated spectrophotometric plate reader at a wavelength of 515 nm.

SW-620 = assay: Sulforhodamine B growth inhibition, colon SW-620; format: cell-based, human; settings: 48 h, SRB, read-out: GROWTH INHIBITION (GI 50)
Description: as §1, §2, §3

SKOV-3 = assay: Sulforhodamine B growth inhibition, ovarian SKOV-3; format: cell-based, human; settings: 48 h, SRB, read-out: GROWTH INHIBITION (GI 50)
Description: as §1, §2, §3

PC-3 = assay: Sulforhodamine B growth inhibition, prostate PC-3; format: cell-based, human; settings: 48 h, SRB, read-out: GROWTH INHIBITION (GI 50)
Description: as §1, §2, §3

DU145 = assay: Sulforhodamine B growth inhibition, prostate DU145; format: cell-based, human; settings: 48 h, SRB, read-out: GROWTH INHIBITION (GI 50)
Description: as §1, §2, §3

MCF-7/ADR = assay: Sulforhodamine B growth inhibition, breast MCF-7/ADR; format: cell-based, human; settings: 48 h, SRB, read-out: GROWTH INHIBITION (GI 50)
Description: as §1, §2, §3

A498 = assay: Sulforhodamine B growth inhibition, renal A498; format: cell-based, human; settings: 48 h, SRB, read-out: GROWTH INHIBITION (GI 50)
Description: as §1, §2, §3

Human lymphocytes = assay: Lymphocyte proliferation (tritiated thymidine incorporation); format: cell-based; settings: 1 μM; human lymphocytes with Phytohemagglutitin A
Description: Human lymphocytes were isolated from whole blood by using Ficoll Hypaque Plus (Amersham). On day one, 1 million lymphocytes were seeded into each well of 96 well plate in 100 μL volume of RPMI 1640 medium containing 10% FCS and Phytohemagglutitin A at 1 μg/well concentration. Plates were incubated at 37° C. in CO2 incubator for 24 h. Test compounds at various concentrations were added to test wells and only medium with vehicle was added to control wells. After 48 h of incubation […] of tritiated thymidine was added to each well. After 24 h of thymidine addition the cells were harvested and the incorporated radioactivity was determined.
Stimulation Index (SI) was calculated using the formula, […]

MCF7 = assay: Sulforhodamine B growth inhibition, breast MCF7; format: cell-based, human; settings: 48 h, SRB, read-out: GROWTH INHIBITION (GI 50)
Description: as §1, §2, §3

U251 = assay: Sulforhodamine B growth inhibition, CNS U251; format: cell-based, human; settings: 48 h, SRB, read-out: GROWTH INHIBITION (GI 50)
Description: as §1, §2, §3

Swiss albino mice = assay: Plasma triglyceride and body weight reduction in Swiss albino mice; format: in vivo
Description: Male Swiss albino mice (SAM) were obtained from NIN and housed in DRF animal house. All these animals were maintained under 12 hour light and dark cycle at 25±1° C. Animals were given standard laboratory chow (NIN, Hyderabad, India) and water, ad libitum. SAM of 20-25 g body weight range (Oliver, P., Plancke, M. O., Marzin, D., Clavey, V., Sauzieres, J and Fruchart, J. C. Effects of fenofibrate, gemfibrozil and nicotinic acid on plasma lipoprotein levels in normal and hyperlipidemic mice. Atherosclerosis. 1988. 70: 107-114)
The test compounds were administered orally to Swiss albino mice at 30 to 500 mg/kg/day dose for 6 days. Control mice were treated with vehicle (Chremophore/DMSO/H2O; dose 10 ml/kg).
The blood samples were collected in fed state 1 hour after drug administration on 0 and 6 day of treatment. The blood was collected from the retro-orbital sinus through heparinised capillary in EDTA containing tubes. After centrifugation, plasma sample was separated for triglyceride (Wieland, 0. Methods of Enzymatic analysis, Bergerneyer, H. O., Ed., 1963. 211-214; Trinder, P. Ann. Clin. Biochem. 1969. 6: 24-27). Measurement of plasma triglycerides was done using commercial kits (Dr. Reddy's Diagnostic Division, Hyderabad, India).
The formula used to measure percent reduction in blood sugar/triglycerides is given above.

HT29 = assay: Sulforhodamine B growth inhibition, colon HT29; format: cell-based, human; settings: 48 h, SRB, read-out: GROWTH INHIBITION (GI 50)
Description: as §1, §2, §3

H522 = assay: Sulforhodamine B growth inhibition, lung H522; format: cell-based, human; settings: 48 h, SRB, read-out: GROWTH INHIBITION (GI 50)
Description: as §1, §2, §3

PA1 = assay: Sulforhodamine B growth inhibition, ovarian PA1; format: cell-based, human; settings: 48 h, SRB, read-out: GROWTH INHIBITION (GI 50)
Description: as §1, §2, §3

HIV-1/MN = assay: Anti HIV activity in PM-1 cells (P24 ELISA, MTT corrected); format: cell-based; settings: 1 μM; PM-1 cells infected with HIV-1/MN, 96 h, P24 antigen corrected by MTT
Description: Human CD^4+ T cell line PM-1 used in the assay was cultured in RPMI-1640 medium containing 10% Fetal bovine serum, 2 g/L sodium bicarbonate, 100,000 units/L Pencillin-G and 100 mg/L streptomycin. Healthy PM-1 cells were plated on the first day in a 96 well plate at 2×10^6 cells per well. After 24 h HIV-1/MN was added to the culture and incubated for 2 h for infection. Cells were washed twice with PBS to remove the virus in the culture. Different concentrations of DRF compounds ranging from 10−^4 to 10^−8 M were added to the culture and incubated for 96 h. The viability of cells was then assessed by standard MTT assay and the viral antigen P24 levels were estimated by ELISA method. Based on the MTT assay values the P 24 antigen values were corrected.
All the samples were tested in triplicates and the average was used for calculations. AZT was used as standard compound for comparision.

C57BL/KsJ-db/db mice = assay: Blood sugar and triglycerides lowering in db/db mice; format: in vivo; settings: 100 mg/kg oral gavage daily for 6 days, plasma
Excerpt: Mutution in colonies of laboratory animals and different sensitivities to dietary regimens have made the development of animal models with non-insulin dependent diabetes and hyperlipidemia associated with obesity and insulin resistance possible. Genetic models such as db/db mice have been developed by the various laboratories for understanding the pathophysiology of disease and testing the efficacy of new antidiabetic compounds (Diabetes, (1983) 32: 830-838; Annu. Rep. Sankyo Res. Lab. (1994) 46:1-57). The homozygous animals, C57 BL/KsJ-db/db mice developed by Jackson Laboratory, US, are obese, hyperglycemic, hyperinsulinemic and insulin resistant (J. Clin, Invest., (1990) 85: 962-967), whereas heterozygous are lean and normoglycemic. […]
The random blood sugar and triglyceride levels were measured by collecting blood (100 μl) through orbital sinus, using heparinised capillary in tubes containing EDTA which was centrifuged to obtain plasma. The plasma glucose and triglyceride levels were measured spectrometrically, by glucose oxidase and glycerol-3-PO4 oxidase/peroxidase enzyme (Dr. Reddy's Lab. Diagnostic Division Kits, Hyderabad, India) methods respectively.
The blood sugar and triglycerides lowering activities of the test compound was calculated according to the formula: [formula]
Body weight of the animals were measured at the beginning and at the end of the study period.

C=C1CC[C@@H]2[C@](C)(COC(C)=O)[C@H](OC(C)=O)CC[C@@]2(C)[C@@H]1C/C=C1/C(=O)OC[C@H]1OC(=O)C(OC(C)=O)C(NC(C)=O)c1ccccc1 (stereo partly drawn) [Example 16, 3,19-Diacetyl-14-(2′-acetyl 3′-acetamido 3′-phenyl)propionyl andrographolide]
GI50 (UACC62): 3 µM
GI50 (SW-620): 6 µM
GI50 (SKOV-3): 4 µM
GI50 (PC-3): 6.5 µM
GI50 (DU145): 6.5 µM
GI50 (MCF-7/ADR): 5.5 µM
GI50 (A498): 9 µM
Stimulation Index (SI) (Human lymphocytes): 90
GI50 (MCF7): 5 µM
GI50 (U251): 4 µM
Percentage reduction Body weight (Swiss albino mice; 100 mg/kg orally for 6 days): 9%
Percentage reduction TG (Swiss albino mice; 100 mg/kg orally for 6 days): 42%
Percentage reduction Body weight (Swiss albino mice; 250 mg/kg orally for 6 days): 15%
Percentage reduction Body weight (Swiss albino mice; 500 mg/kg orally for 6 days): 23%
Percentage reduction TG (Swiss albino mice; 500 mg/kg orally for 6 days): 62%
GI50 (HT29): 6.5 µM
GI50 (H522): 6 µM
GI50 (PA1): 2 µM
Percentage Inhibition (HIV-1/MN): 61.06%
Percentage reduction Glucose (C57BL/KsJ-db/db mice): 64%
Percentage reduction TG (C57BL/KsJ-db/db mice): 54%
